# Assays:
# [1] = Flavor comparison in chicken aroma base (FIG. 2), panel of trained testers; assay type: in vivo; settings: 1 ppm in chicken aroma base vs base with 0.2 wt. % standard aroma (containing MSG)
# Source text: Here, a base for a chicken aroma is compared with (i) such a base having 1 ppm of the pure-enantiomer compound 1-((1S,2S,5R)-2-isopropyl-5-methyl-cyclohexyl)-3-(3-methoxy-propyl)-urea (1) added and (ii) with such a base having 0.2 wt. % of a standard aroma (containing MSG) added.
# The flavor of the chicken base (solid dark line) was compared with the aid of tasting by a panel of trained testers with the flavor firstly of such a base to which 1 ppm of 1-((1S,2S,5R)-2-Isopropyl-5-methyl-cyclohexyl)-3-(3-methoxy-propyl)-urea (1) was added (solid light line), and secondly such a base to which 0.2 wt. % of a standard chicken aroma containing sodium glutamate was added (dotted line).
# The testers evaluated the strength of the test directions indicated, in each case by specifying marks on a scale of from 0 (no corresponding flavor) to 8 (very strong corresponding flavor). The average values of the respective marks are represented.
# [2] = Flavor profile determined by a trained panel of at least 5 testers; assay type: in vivo; settings: trained panel of at least 5 testers, tasting against a 0.5% strength salt and a 0.5% strength sugar solution
# Procedure: The flavor profiles were determined by a trained panel of at least 5 testers by tasting against a 0.5% strength salt and a 0.5% strength sugar solution
smiles,measurement,setting,value
"COCCCNC(=O)N[C@H]1C[C@H](C)CC[C@H]1C(C)C [(1), 1-((1S,2S,5R)-2-isopropyl-5-methyl-cyclohexyl)-3-(3-methoxy-propyl)-urea]",flavor character compared with standard aroma containing MSG,[1],genuine MSG-like character
same,Flavor Profile,[2],"salty, long-lasting, umami, no by notes"

# — patent US8852664B2, “Neo-menthyl derivatives as flavor materials” (Symrise AG, priority 2008, dated 2014)
